# Legend:
# [1] = Determination of solubility in neutral buffer solution; format: physicochemical; details: aqueous buffer, thermodynamic from solid; 0.15 M phosphate buffer pH 7.2, room temperature, left overnight, supernatant by HPLC
# Experimental: Determination of Solubility:
# A test compound was suspended in 0.15 M phosphate buffer solution having pH of 7.2 at room temperature. The obtained suspension was vigorously shaken and then left to stand overnight. The insoluble compound was removed by centrifugation, and the concentration of the compound in the supernatant was determined by the high-performance liquid chromatography.
# calcium channel (ileum) = calcium channel (ileum) (Rattus norvegicus, UniProt P22002); assay: In vitro calcium channel-antagonistic effect (ileum): inhibition of high potassium contraction of ileum samples; format: cell-based, rat (male Crj:CD); details: 30 minute pretreatment; for inhibition at 0.1 µM: high potassium (45.0 mM KCl) contraction, 10^−7 M test compound, read-out: Inhibition rate (%) (conc.: 10^−7M)
# Experimental: In Vitro Calcium Channel-antagonistic Effect (Ileum):
# The ileum was taken out of male Crj:CD rats (8-12 weeks old) at a position of 3 cm distant from the ileocecal region. The ileum samples were suspended in Tyrode's solution in which a mixed gas (95% of oxygen and 5% of carbon dioxide) was introduced at 37° C. As for the change in tension of the ileum, the isometry was recorded on a ink writing recorder through a transducer. The high potassium contraction was caused by changing the nutritive solution from the Tyrode's solution to a potassium-Tyrode's solution (94.6 mM of NaCl, 45.0 mM of KCl, 1.8 mM of CaCl2, 1.04 mM of MgCl2, 0.4 mM of NaH2PO4, 11.9 mM of NaHCO3, and 5.55 mM of glucose). The high potassium contraction-inhibiting effect of the test compound was determined by 30 minute pretreatment. Compound A described in European Patent No. 0404359A1 was used as a comparative substance. The results of the determination of the calcium channel antagonistic activity were given in terms of the rate of inhibition of the high calcium contraction with 10^−7 M of the test compound. In Table 2, “−” means not determined.
# [2] = target: calcium channel (blood vessel, thoracic aortae) (Rattus norvegicus, UniProt P22002); assay: In vitro calcium channel-antagonistic effect (blood vessel): inhibition of high potassium contraction of thoracic aorta spiral samples; format: cell-based, rat (male Crj:CD); details: 30 minute pretreatment; for inhibition at 0.1 µM: high potassium (45.0 mM KCl) contraction, 10^−7 M test compound, read-out: Inhibition rate (%) (conc.: 10^−7M)
# Experimental: In Vitro Calcium Channel-antagonistic Effect (Blood Vessel):
# The thoracic aortae were taken out of male Crj:CD rats (8-12 weeks old) and spiral samples were prepared from them. The blood vessel samples were suspended in Tyrode's solution in which a mixed gas (95% of oxygen and 5% of carbon dioxide) was introduced at 37° C. As for the change in tension of each blood vessel, the isometry was recorded on an ink writing recorder through a transducer. The high potassium contraction was caused by changing the nutritive solution from the Tyrode's solution to a potassium-Tyrode's solution (94.6 mM of NaCl, 45.0 mM of KCl, 1.8 mM of CaCl2, 1.04 mM of MgCl2, 0.4 mM of NaH2PO4, 11.9 mM of NaHCO3, and 5.55 mM of glucose). The high potassium contraction-inhibiting effect of the test compound was determined by 30 minute pretreatment. Compound A described in European Patent No. 0404359A1 was used as a comparative substance. The results of the determination of the calcium channel antagonistic activity were given in terms of the rate of inhibition of the high calcium contraction with 10^−7 M of the test compound. In Table 1, “−” means not determined.
# Chain of calcium channel (ileum) (P22002 whole entry): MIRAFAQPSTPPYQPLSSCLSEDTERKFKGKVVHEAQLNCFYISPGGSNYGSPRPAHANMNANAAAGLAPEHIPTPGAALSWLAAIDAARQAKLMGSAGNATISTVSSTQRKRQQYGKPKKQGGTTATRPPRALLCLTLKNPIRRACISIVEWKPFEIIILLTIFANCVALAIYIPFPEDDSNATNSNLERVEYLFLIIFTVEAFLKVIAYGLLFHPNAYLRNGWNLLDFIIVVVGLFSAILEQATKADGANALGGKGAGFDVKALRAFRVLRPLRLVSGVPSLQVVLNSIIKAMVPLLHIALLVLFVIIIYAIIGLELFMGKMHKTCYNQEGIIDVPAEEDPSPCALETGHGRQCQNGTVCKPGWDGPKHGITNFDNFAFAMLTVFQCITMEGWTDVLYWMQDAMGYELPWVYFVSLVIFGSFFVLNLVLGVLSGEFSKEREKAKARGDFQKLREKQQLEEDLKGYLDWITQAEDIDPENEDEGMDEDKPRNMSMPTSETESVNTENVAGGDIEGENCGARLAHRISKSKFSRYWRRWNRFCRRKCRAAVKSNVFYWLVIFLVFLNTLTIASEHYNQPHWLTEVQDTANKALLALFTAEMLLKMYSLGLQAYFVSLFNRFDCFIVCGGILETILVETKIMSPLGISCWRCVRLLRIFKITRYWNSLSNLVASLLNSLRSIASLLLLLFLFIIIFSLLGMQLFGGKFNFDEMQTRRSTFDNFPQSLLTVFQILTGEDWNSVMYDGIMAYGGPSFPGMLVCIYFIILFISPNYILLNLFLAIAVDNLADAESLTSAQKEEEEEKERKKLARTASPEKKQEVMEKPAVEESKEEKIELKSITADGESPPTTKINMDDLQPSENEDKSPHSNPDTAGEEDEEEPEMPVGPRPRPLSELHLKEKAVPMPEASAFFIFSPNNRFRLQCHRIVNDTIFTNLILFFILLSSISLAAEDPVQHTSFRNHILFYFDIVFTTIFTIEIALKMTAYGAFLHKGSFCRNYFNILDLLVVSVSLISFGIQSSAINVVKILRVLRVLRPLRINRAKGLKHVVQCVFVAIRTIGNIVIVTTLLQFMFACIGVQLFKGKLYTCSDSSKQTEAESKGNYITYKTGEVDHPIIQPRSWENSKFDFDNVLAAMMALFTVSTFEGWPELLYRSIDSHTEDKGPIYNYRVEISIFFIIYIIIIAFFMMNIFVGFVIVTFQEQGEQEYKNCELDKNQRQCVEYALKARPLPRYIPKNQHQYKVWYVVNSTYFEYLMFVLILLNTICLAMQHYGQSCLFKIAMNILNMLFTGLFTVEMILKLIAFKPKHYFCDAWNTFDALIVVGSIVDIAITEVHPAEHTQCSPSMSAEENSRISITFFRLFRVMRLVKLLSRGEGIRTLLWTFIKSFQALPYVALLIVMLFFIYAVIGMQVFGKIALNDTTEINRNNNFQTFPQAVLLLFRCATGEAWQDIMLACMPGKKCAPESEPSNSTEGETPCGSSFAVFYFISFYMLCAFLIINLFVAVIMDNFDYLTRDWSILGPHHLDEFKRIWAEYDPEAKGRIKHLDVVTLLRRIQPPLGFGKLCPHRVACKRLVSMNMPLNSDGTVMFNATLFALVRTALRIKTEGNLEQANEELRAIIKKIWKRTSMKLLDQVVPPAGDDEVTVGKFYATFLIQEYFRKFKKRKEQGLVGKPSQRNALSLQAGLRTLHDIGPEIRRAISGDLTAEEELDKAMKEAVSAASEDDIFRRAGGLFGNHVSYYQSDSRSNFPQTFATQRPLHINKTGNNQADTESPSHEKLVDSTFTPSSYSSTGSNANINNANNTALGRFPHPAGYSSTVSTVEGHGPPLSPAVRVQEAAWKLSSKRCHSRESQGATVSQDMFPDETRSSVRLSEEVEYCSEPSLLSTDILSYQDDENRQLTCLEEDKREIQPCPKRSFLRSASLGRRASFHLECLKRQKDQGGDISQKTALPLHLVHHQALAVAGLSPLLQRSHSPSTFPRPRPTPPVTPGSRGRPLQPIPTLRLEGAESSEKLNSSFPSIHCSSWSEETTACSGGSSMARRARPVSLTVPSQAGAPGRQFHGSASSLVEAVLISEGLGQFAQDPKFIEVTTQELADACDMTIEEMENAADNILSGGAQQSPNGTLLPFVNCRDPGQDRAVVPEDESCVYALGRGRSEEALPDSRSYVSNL
# Chain of calcium channel (blood vessel, thoracic aortae) (P22002 whole entry): as above
melting point [°C],SMILES,solubility [1] [µg/mL],inhibition at 0.1 µM (calcium channel (ileum)) [%],inhibition at 0.1 µM [2] [%],"IC50 (calcium channel (ileum); high potassium contraction, read-out: IC50(nM), concentration for 50% contraction inhibition) [nM]","IC50 ([2]; high potassium contraction, read-out: IC50 (nM), concentration for 50% contraction inhibition) [nM]"
134 to 137,"CNc1ccc(CCN2CCC[C@@H]2CN2c3ccccc3COc3ccccc32)cc1.Cl.Cl [Example 8, (R)-5,11-Dihydro-5-[1-[2-(4-methylaminophenyl)ethyl]-2-pyrrolidinylmethyl]dibenzo[b,e][1,4]oxazepine Dihydrochloride]",116,–,–,–,–
168 to 172,Cl.Cl.Nc1ccccc1CCN1CCC[C@@H]1CN1c2ccccc2COc2ccccc21,–,–,–,–,–
179 to 182,Cl.O[C@H](CCN1CCC[C@@H]1CN1c2ccccc2COc2ccccc21)c1ccccc1,–,–,–,–,–
176 to 180,Cl.Cl.Nc1ccc(CCN2CCC[C@@H]2CN2c3ccccc3COc3ccccc32)cc1,–,–,–,–,–
120 to 122,COc1ccc(C=CCN2CCC[C@@H]2CN2c3ccccc3COc3ccccc32)cc1.Cl,–,–,–,–,–
149 to 150,Cl.O[C@@H](CCN1CCC[C@@H]1CN1c2ccccc2COc2ccccc21)c1ccccc1,–,–,–,–,–
149 to 152,"Cl.Cl.Nc1cccc(CCN2CCC[C@@H]2CN2c3ccccc3COc3ccccc32)c1 [Example 13, (R)-5,11-Dihydro-5-[1-[2-(3-aminophenyl)ethyl]-2-pyrrolidinylmethyl]dibenzo[b,e][1,4]oxazepine Dihydrochloride]",418,–,–,–,–

# More lines, now with the values behind:
SMILES,melting point [°C],solubility [1] [µg/mL],inhibition at 0.1 µM (calcium channel (ileum)) [%],inhibition at 0.1 µM [2] [%],"IC50 (calcium channel (ileum); high potassium contraction, read-out: IC50(nM), concentration for 50% contraction inhibition) [nM]","IC50 ([2]; high potassium contraction, read-out: IC50 (nM), concentration for 50% contraction inhibition) [nM]"
COc1ccc(CCN2CCC[C@@H]2CN2c3ccccc3COc3ccccc32)cc1N(C)C.Cl.Cl,141 to 144,–,–,–,–,–
"CCN(CC)c1ccc(CCN2CCC[C@@H]2CN2c3ccccc3COc3ccccc32)cc1.Cl.Cl [Example 6, (R)-5,11-Dihydro-5-[1-[2-(4-diethylaminophenyl)ethyl]-2-pyrrolidinylmethyl]dibenzo[b,e][1,4]oxazepine Dihydrochloride]",143 to 146,638,51,24,–,–
"CNc1cccc(CCN2CCC[C@@H]2CN2c3ccccc3COc3ccccc32)c1.Cl.Cl [Example 14, (R)-5,11-Dihydro-5-[1-[2-(3-methylaminophenyl)ethyl]-2-pyrrolidinylmethyl]dibenzo[b,e][1,4]oxazepine Dihydrochloride]",179 to 181,56,76,41,–,–
"CN(C)c1cccc(CCN2CCC[C@@H]2CN2c3ccccc3COc3ccccc32)c1.Cl.Cl [Example 10, (R)-5,11-Dihydro-5-[1-[2-(3-dimethylaminophenyl)ethyl]-2-pyrrolidinylmethyl]dibenzo[b,e][1,4]oxazepine Dihydrochloride]",125 to 128,30,87,51,–,–
COc1ccc(OCCN2CCC[C@@H]2CN2c3ccccc3COc3ccccc32)cc1.Cl,186 to 191,–,–,–,–,–
"COc1ccc(CCN2CCCC2CN2c3ccccc3CSc3ccccc32)cc1.O=C(O)/C=C\C(=O)O (stereo not drawn) [Compound A, reference compound]",–,13,–,–,120,530
"CN(C)c1cccc(CCN2CCC[C@@H]2CN2c3ccccc3COc3ccccc32)c1.Cl.Cl [Example 19, (R)-5,11-Dihydro-5-[1-[2-(3-dimethylaminophenyl)ethyl]2-pyrrolidinylmethyl)dibenzo[b,e][1,4]oxazepine Dihydrochloride]",170 to 172,–,–,–,–,–
"COc1ccc(CCCN2CCC[C@@H]2CN2c3ccccc3COc3ccccc32)cc1.Cl [Example 24, (R)-5,11-Dihydro-5-[1-[3-(4-methoxyphenyl)propane-1-yl]-2-pyrrolidinylmethyl]dibenzo[b,e][1,4]oxazepine Hydrochloride]",172 to 174,49,67,31,–,–
"CN(C)c1ccc(CCN2CCC[C@@H]2CN2c3ccccc3COc3ccccc32)cc1.Cl.Cl [Example 2, (R)-5,11-Dihydro-5-[1-[2-(4-dimethylaminophenyl)ethyl]-2-pyrrolidinylmethyl]dibenzo[b,e][1,4]oxazepine Dihydrochloride]",164 to 169,36,62,12,–,–
"CN(C)c1cccc(CCCN2CCC[C@@H]2CN2c3ccccc3COc3ccccc32)c1.Cl.Cl [Example 38, (R)-5,11-Dihydro-5-[1-[3-(3-dimethylaminophenyl)propane-1-yl]-2-pyrrolidinylmethyl]dibenzo[b,e][1,4]oxazepine Dihydrochloride]",120 to 123,41,52,25,–,–
